Structures can show the parent of a compound that is named as a salt.
How the values were obtained:
[1] = system: colorectal cancer cell line HCT116; test: CellTiter-Glo tumor cell proliferation, HCT116; format: cell-based, human; details: Homo sapiens, HCT-116, 72 h
Description: (§1) The effect of compounds on tumor cell proliferation was detected by CellTiter-Glo method. Human melanoma cell line A375, non-small cell lung cancer cell line A549, human lung adenocarcinoma cell line H1299, colorectal cancer cell line HCT116, liver cancer cell line HepG2 and gastric cancer cell line MGC80-3 were cultured in vitro. The cells were collected after growing to the logarithmic growth phase, centrifuged at 1000 rpm for 5 min, and suspended in an appropriate amount of medium after discarding the supernatant, and the cell concentration was adjusted to 2×10^4/mL. The cell suspension was inoculated onto the 384-well cell culture plate, with 50 μL per well. After being cultured in a cell incubator (37° C., 5% CO2) for 24 h, 5 μL of drug diluted by the cell culture medium was added into each well for the treatment group. Each drug was provided in triplicate. After 72 h incubation in the incubator, 20 μL of CellTiter-Glo was added into each well, and the relative luminescence unit (RLU) was measured with Multimode Microplate Reader Varioskan Flash (Thermo Scientific, USA) after placed at 37° C. for 20 min, and compared with the RLU of the control group. SigmaPlot 10.0 software was used to calculate the inhibition rate and IC50 value.

[2] = system: human lung adenocarcinoma cell line H1299; test: CellTiter-Glo tumor cell proliferation, H1299; format: cell-based; details: NCI-H1299, 72 h
Description: as §1

[3] = system: non-small cell lung cancer cell line A549; test: CellTiter-Glo tumor cell proliferation, A549; format: cell-based, human; details: Homo sapiens, A549, 72 h, read-out: Inhibition rate A549 (%)
Description: as §1

[4] = system: Human melanoma cell line A375; test: CellTiter-Glo tumor cell proliferation, A375; format: cell-based; details: Homo sapiens, A-375, 72 h
Description: as §1

[5] = system: human liver cancer Bel7404; test: Antitumor activity in vivo, Bel7404 transplanted in nude mice; design: species or system male BALB/c athymic nude mice; details: 15 mg/kg
Description: In the test, the Bel7404 models of human liver cancer transplanted into 6-week-old male BALB/c athymic nude mice (purchased from Shanghai Slac Laboratory Animal Co., Ltd.) with body weight of 18-20 g were used to study the anti-tumor effect of compound 30. The dose of compound 30 was 50 mg/kg (30H group), 25 mg/kg (30 M group) and 12.5 mg/kg (30 L group), respectively, and was injected intravenously twice a week for 5 times in total; at the same time, 5-FU was used as the control drug, which was injected intraperitoneally twice a week for 7 times in total (5 mice/group for the compound 30 administration group, 5 mice in 5 FU administration group; 8 mice were used as the mock group). The long diameter a (mm) and the vertical short diameter b (mm) of the tumor were measured twice a week with a digital electronic caliper. The tumor volume calculation formula was TV=ab^2/2; and the relative tumor volume calculation formula was RTV=Vt/Vo, wherein Vo was the tumor volume measured on the first day of administration (d1), and Vt was the tumor volume at each measurement. On the 22nd day of administration (d22), the animals were sacrificed and weighed. The tumor mass was dissected and weighed. The tumor inhibition rate (tumor inhibitory rate, %) was calculated according to the following formula: […]

[6] = system: liver cancer cell line HepG2; test: CellTiter-Glo tumor cell proliferation, HepG2; format: cell-based, human
Description: as §1

[7] = system: human multiple myeloma RPMI 8226; test: Pharmacodynamic study, RPMI 8226 subcutaneous xenograft; format: in vivo, female NOD/SCID mice; details: positive control 0.5 mg/kg, twice a week, tail vein, day of the last administration
Description: The anti-tumor effect in vivo was studied by using the tumor animal model obtained by subcutaneous xenotransplantation of cell lines into female NOD/SCID mice (purchased from Sipeifu Biotechnology Co., Ltd.).
RPMI 8226 cells were subcutaneously inoculated into NOD/SCID mice, and human multiple myeloma subcutaneously transplanted tumor model was successfully established 9 days after inoculating the cells. The test was divided into vehicle (0.3 mL DMSO, 0.27 mL Tween-80, 2.43 mL normal saline) control group, compound 30 low-dose group (20 mg/kg), compound 30 medium-dose group (30 mg/kg), compound 30 high-dose group (40 mg/kg), compound 39 low-dose group (5 mg/kg), compound 39 medium-dose group (10 mg/kg), and compound 39 high-dose group (15 mg/kg), and bortezomib (API purchased from Yangtze River Pharmaceutical) was used as the positive control group (0.5 mg/kg); 5 tumor-bearing mice established above in each group were administered by tail vein twice a week for nine times in total. The long diameter a (mm) of the tumor and the short diameter b (mm) of the tumor perpendicular to the long diameter were measured with digital electronic caliper twice a week. The calculation formula of tumor volume was: TV=ab^2/2; and the calculation formula of relative tumor volume was: RTV=Vt/Vo, Vo was the tumor volume measured when the mice in each group were divided into cages and administered for the first time (d1), and Vt was the tumor volume measured at the last administration. The animals were sacrificed 31 days (d22) after inoculation of RPMI 8226 cells, and weighed. The tumor mass was dissected and weighed, and the tumor inhibition rate was calculated according to the following formula: […]

Compound: CC(C)C[C@H](NC(=O)Cn1nc(-c2ccccc2OS(=O)(=O)c2cccc(C(F)(F)F)c2)cc1-c1ccccc1)B(O)O [Compound 1, (R)-(3-methyl-1-(2-(5-phenyl-3-(2-(((3-(trifluoromethyl)phenyl)sulfonyl)oxy)phenyl)-1H-pyrazol-1-yl)acetamido)butyl)boronic acid]
- inhibition at 1 µM ([1]; 1 μM, read-out: Inhibition rate HCT116 (%)): 13.1%
- inhibition at 10 µM ([1]; 10 μM, read-out: Inhibition rate HCT116 (%)): 98%
- IC50 ([1]; CellTiter-Glo): 6530 nM
- IC50 [2]: 7190 nM
- inhibition at 1 µM ([3]; 1 μM): 11.9%
- inhibition at 10 µM ([3]; 10 μM): 66.4%
- inhibition at 1 µM ([4]; 1 μM, read-out: Inhibition rate A375 (%)): 5.8%
- inhibition at 10 µM ([4]; 10 μM, read-out: Inhibition rate A375 (%)): 98.4%
- IC50 ([4]; CellTiter-Glo): 8910 nM

Compound: O=c1[nH]cc(F)c(=O)[nH]1 [Compound 5FU, 5-FU, reference compound]
- RTV (d22) ([5]; ip × 7): 2.78 ± 0.37
- Animal weight (g) (After tumor removal) ([5]; ip × 7, d22): 23.14 ± 0.58 g
- Inhibition rate % ([5]; ip × 7, d22): 53.77%

Compound: CC(C)C[C@H](NC(=O)Cn1nc(-c2cccc(OCCCN3CCN(c4ccccc4)CC3)c2)cc1-c1ccccc1)B(O)O [Compound 40, (R)-(3-methyl-1-(2-(5-phenyl-3-(3-(3-(4-phenylpiperazin-1-yl)propoxy)phenyl)-1H-pyrazol-1-yl)acetamido)butyl)boronic acid dihydrochloride]
- IC50 ([6]; Homo sapiens, HepG2, 72 h): 101 nM

Compound: CC(C)C[C@H](NC(=O)Cn1nc(-c2cccc(OCCCCN3CCN(c4ccccc4)CC3)c2)cc1-c1ccccc1)B(O)O [Compound 41, (R)-(3-methyl-1-(2-(5-phenyl-3-(3-(4-(4-phenylpiperazin-1-yl)butoxy)phenyl)-1H-pyrazol-1-yl)acetamido)butyl)boronic acid dihydrochloride]
- IC50 ([6]; Homo sapiens, HepG2, 72 h): 123 nM

Compound: CC(C)C[C@H](NC(=O)[C@H](Cc1ccccc1)NC(=O)c1cnccn1)B(O)O [bortezomib, reference compound]
- Relative tumor volume (x ± S) [7]: 5.17 ± 0.98
- T/C (%) [7]: 55.41%
- TGI (%) [7]: 44.59%
- Tumor volume (x ± S) ([7]; in mm³ (unit assumed)): 359.97 ± 65.13

Compound: ((1R)-1-(2-(3-(3-(2-(S,R-2,6-dimethylmorpholino)ethoxy)phenyl)-5-phenyl-1H-pyrazol-1-yl)acetamido)-3-methylbutyl)boronic acid hydrochloride [Compound 38]
- IC50 ([6]; 72 h): 126 nM

Compound: ((1R)-1-(2-(3-(3-(2-(S,S-2,6-dimethylmorpholino)ethoxy)phenyl)-5-phenyl-1H-pyrazol-1-yl)acetamido)-3-methylbutyl)boronic acid hydrochloride [Compound 37]
- IC50 ([6]; 72 h): 60 nM

Compound: (R)-(3-methyl-1-(2-(5-phenyl-3-(3-((5-(4-phenylpiperazin-1-yl)pentyl)oxy)phenyl)-1H-pyrazol-1-acyl)acetamido)butyl)boronic acid dihydrochloride [Compound 42]
- IC50 ([6]; 72 h): 121 nM

From patent US12473305B2, “Pyrazole boronic acid compound, pharmaceutical composition containing same, and uses thereof” (BEIJING SONGRUN PHARMACEUTICAL TECHNOLOGY CO., LTD., priority 2020, dated 2025)
